Experimental data reported in article PMC3478562 (Biochemical pharmacology, 2011).
In brackets after ≈: the same amount, converted by molar mass.

Key:
[1] = tested on: Streptococcus pyogenes 712; assay: Antimicrobial activity spectrum MIC; format: cell-based
[2] = tested on: Proteus mirabilis 1360; assay: Antimicrobial activity spectrum MIC; format: cell-based
[3] = tested on: Staphylococcus epidermidis 831; assay: Antimicrobial activity spectrum MIC; format: cell-based
[4] = tested on: Streptococcus pneumoniae 1195; assay: Antimicrobial activity spectrum MIC; format: cell-based
[5] = tested on: Pseudomonas aeruginosa 1380; assay: Antimicrobial activity spectrum MIC; format: cell-based
[6] = tested on: Escherichia coli 102; assay: Antimicrobial activity spectrum MIC; format: cell-based
[7] = tested on: Klebsiella pneumoniae 1339; assay: Antimicrobial activity spectrum MIC; format: cell-based
[8] = tested on: Enterococcus faecium 800; assay: Antimicrobial activity spectrum MIC; format: cell-based
[9] = tested on: Enterococcus faecalis 101; assay: Antimicrobial activity spectrum MIC; format: cell-based
[10] = tested on: Escherichia coli 120 (acrAB efflux pump deletion); assay: microbe, parasite or virus in culture; format: cell-based
[11] = biological target: T1, Alr (Staphylococcus aureus, UniProt Q6GF03); assay: Inhibitor reversibility: pre-incubation and dialysis; format: biochemical; settings: pre-incubated 30 minutes, dialyzed for 16 hours
T1 sequence (Q6GF03 whole entry): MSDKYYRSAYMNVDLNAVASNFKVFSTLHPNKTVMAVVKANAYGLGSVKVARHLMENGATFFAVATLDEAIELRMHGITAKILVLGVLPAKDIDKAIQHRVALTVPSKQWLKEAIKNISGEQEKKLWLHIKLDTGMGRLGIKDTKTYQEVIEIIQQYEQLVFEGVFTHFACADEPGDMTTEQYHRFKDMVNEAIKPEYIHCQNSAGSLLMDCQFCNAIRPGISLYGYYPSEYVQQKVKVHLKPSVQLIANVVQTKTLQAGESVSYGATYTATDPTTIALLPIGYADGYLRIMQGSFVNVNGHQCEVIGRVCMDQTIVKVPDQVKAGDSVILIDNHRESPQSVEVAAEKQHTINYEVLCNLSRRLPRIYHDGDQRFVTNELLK

[12] = tested on: Staphylococcus aureus PCI 124; assay: S. aureus MIC, broth microdilution; settings: PCI124
[13] = tested on: Staphylococcus aureus 328; assay: S. aureus MIC, broth microdilution
[14] = tested on: Staphylococcus aureus PCI 1158; assay: S. aureus MIC, broth microdilution; settings: PCI1158
[15] = tested on: S. aureus USA 300; assay: MIC in wild type and Alr overexpressing strains; settings: Staphylococcus aureus, USA300
[16] = tested on: Staphylococcus aureus HFH-29568; assay: S. aureus MIC, broth microdilution; settings: HFH29568
[17] = biological target: T1, Alr; assay: Inhibitor reversibility: IC50 after pre-incubation with the enzyme; format: biochemical; settings: pre-incubation 30 minutes vs 6 hours (16 hours)
[18] = tested on: S. aureus N315-alr (Alr overexpressing); assay: MIC in wild type and Alr overexpressing strains; settings: Staphylococcus aureus
[19] = tested on: S. aureus USA300-alr (Alr overexpressing); assay: MIC in wild type and Alr overexpressing strains; settings: Staphylococcus aureus
[20] = tested on: Staphylococcus aureus HFH-30032; assay: S. aureus MIC, broth microdilution; settings: HFH30032
[21] = tested on: Staphylococcus aureus HFH-30364; assay: S. aureus MIC, broth microdilution; settings: HFH30364
[22] = tested on: Staphylococcus aureus HFH-30522; assay: S. aureus MIC, broth microdilution; settings: HFH30522
[23] = tested on: S. aureus N315; assay: MIC in wild type and Alr overexpressing strains; settings: Staphylococcus aureus
[24] = tested on: Staphylococcus aureus FDA 209; assay: S. aureus MIC, broth microdilution; settings: FDA209
[25] = tested on: Aspergillus niger 624; assay: Antimicrobial activity spectrum MIC; format: cell-based
[26] = tested on: Candida albicans 2000; assay: Antimicrobial activity spectrum MIC; format: cell-based

Q: Which MIC [1] does the source give for C[C@@H]1[C@H](O)[C@@H](C)/C=C/C=C/C=C/C=C/C=C/C=C/C=C/[C@H](O[C@@H]2O[C@H](C)[C@@H](O)[C@H](N)[C@@H]2O)C[C@@H]2O[C@](O)(C[C@@H](O)C[C@@H](O)[C@H](O)CC[C@@H](O)C[C@@H](O)CC(=O)O[C@H]1C)C[C@H](O)[C@H]2C(=O)O [AMPB, Amphotericin B] here?
A: > 64 µg/mL

Q: And the MIC [2]?
A: > 64 µg/mL

Q: What about the MIC [3] of the same compound?
A: > 64 µg/mL

Q: And the MIC [4]?
A: > 64 µg/mL

Q: And the MIC [5]?
A: > 64 µg/mL

Q: What about the MIC [6] of the same compound?
A: > 64 µg/mL

Q: What about the MIC [7] of the same compound?
A: > 64 µg/mL

Q: What about the MIC [8] of the same compound?
A: > 64 µg/mL

Q: And the MIC [9]?
A: > 64 µg/mL

Q: And the MIC [10]?
A: > 64 µg/mL

Q: With CCC(=O)[O-].[Na+] [sodium propionate] as the compound, how does the “recovery of Alr activity after dialysis” value [11] read?
A: recovery of Alr activity

Q: Which MIC [12] does the source give for N[C@@H]1CON=C1O [DCS, D-cycloserine] here?
A: 12.5 µg/mL (≈ 122 µM)

Q: What about the MIC [13] of the same compound?
A: 12.5 µg/mL (≈ 122 µM)

Q: And the MIC [14]?
A: 12.5 µg/mL (≈ 122 µM)

Q: And the MIC [15]?
A: 25 µg/mL (≈ 245 µM)

Q: What about the MIC [16] of the same compound?
A: 12.5 µg/mL (≈ 122 µM)

Q: And the “change of IC50 values with longer pre-incubation time” value [17]?
A: a significant reduction in the IC50 values occurs with longer pre-incubation time

Q: And the MIC [18]?
A: 25 µg/mL (≈ 245 µM)

Q: What about the MIC [19] of the same compound?
A: 25 µg/mL (≈ 245 µM)

Q: And the MIC [20]?
A: 12.5 µg/mL (≈ 122 µM)

Q: What about the MIC [21] of the same compound?
A: 12.5 µg/mL (≈ 122 µM)

Q: And the MIC [22]?
A: 12.5 µg/mL (≈ 122 µM)

Q: And the MIC [23]?
A: 25 µg/mL (≈ 245 µM)

Q: And the “recovery of Alr activity after dialysis” value [11]?
A: no increase in activity

Q: And the MIC [24]?
A: 12.5 µg/mL (≈ 122 µM)

Q: How did the “change of IC50 values with longer pre-incubation time” value [17] turn out when CC(=O)OC[C@H](N)C(=O)O [O-acetyl-L- serine, O-acetyl-L-serine] was run?
A: no significant reduction in IC50 values

Q: For O=C(O)c1cn(C2CC2)c2cc(N3CCNCC3)c(F)cc2c1=O [Cipro, Ciprofloxacin], which MIC [3] is on record?
A: > 16 µg/mL

Q: What about the MIC [25] of the same compound?
A: > 64 µg/mL

Q: And the MIC [4]?
A: 0.5 µg/mL (≈ 1.51 µM)

Q: And the MIC [26]?
A: > 64 µg/mL

Q: What about the MIC [8] of the same compound?
A: > 16 µg/mL
